Results as given in patent publication US20250188083A1, “Modulators of Histone Acetyltransferase 1 and Methods of Treatment Thereof” (The Board of Trustees of the Leland Stanford Junior …, priority 2021, published 2025).
“And” between values parts separate entries of the source, which are not always exact repeats. Equal entries are not always repeated.

What was measured:
[1] = molecular target: HAT1/Rbap46 enzyme complex (Homo sapiens, UniProt O14929); test: HAT1 acetylation (acetyl-click) assay with 4-pentynoyl-CoA; format: biochemical; settings: for IC50: dose-response, 4-pentynoyl-CoA co-factor, read-out: IC50 for HAT1 enzymatic inhibition; for HAT1 inhibitory activity in library screens (rank, active or inactive): single-dose screening; for inhibition of HAT1/Rbap46 by bi-substrate inhibitors: 10 μM; for HAT1 inhibitory activity of flavonoids in dose-response: dose-response curves, FIG. 13
Sequence of HAT1/Rbap46 enzyme complex (Q16576 whole entry partner, one chain of several): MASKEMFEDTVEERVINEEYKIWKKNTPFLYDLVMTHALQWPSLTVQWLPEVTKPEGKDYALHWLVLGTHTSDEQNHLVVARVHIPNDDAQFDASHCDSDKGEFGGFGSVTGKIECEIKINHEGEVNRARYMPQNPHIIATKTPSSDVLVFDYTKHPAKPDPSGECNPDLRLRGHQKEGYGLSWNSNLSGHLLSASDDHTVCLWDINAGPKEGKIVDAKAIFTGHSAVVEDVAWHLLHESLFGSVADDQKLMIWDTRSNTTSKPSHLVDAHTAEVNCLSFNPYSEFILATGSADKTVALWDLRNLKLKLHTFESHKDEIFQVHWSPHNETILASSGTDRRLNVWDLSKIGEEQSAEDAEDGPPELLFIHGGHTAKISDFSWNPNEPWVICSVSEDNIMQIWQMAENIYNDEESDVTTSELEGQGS
Protocol: FIG. 6 provides a schematic of a histone acetyltransferase 1 (HAT1) acetylation assay in accordance with various embodiments. HAT1/Rbap46 purified enzyme complex is incubated with 4-pentynoyl-CoA and histone H4 N-terminal biotinylated peptide in the presence or absence of test compounds. Then reaction products are bound to neutravidin 96-well plate, washed, functionalized by copper(I)-catalyzed cycloaddition click chemistry with biotin-azide. Then, streptavidin-HRP is bound and detected by amplex red fluorescence reaction.
Percent inhibition was calculated according the following formula: […]

CBP = molecular target: T1, CBP (Homo sapiens, UniProt Q92793); test: Other acetyltransferase assay (3H-Acetyl-CoA, Creative Biomart); format: biochemical; settings: 10-point dose curve from 100 μM
T1 construct: Creative Biomart (assay service)
Protocol: (§1) Acetylation assays on 7 targets (CBP, GCN5, KAT5, MYST2/KAT7, MYST4/KAT6b, p300, pCAF) was performed by Creative Biomart. […] Reaction buffer was 50 mM Tris-HCL, 0.1 mM EDTA, 250 mM NaCl, 1 mM DTT, 1% DMSO, pH 8.0, using 3 μM 3H-Acetyl-CoA, reaction time of 1 hour at 30 degrees Celsius, with substrate conversion rate between 5-20%. Enzymes were diluted in reaction buffer, followed by addition of compound with Acoustic Technology in nanoliter range, incubated at room temperature for 20 minutes, then 3H-Acetyl-CoA was added. Reaction was incubated at 30 minutes at 30 degrees Celsius, then transferred to filter paper for detection.

GCN5 = molecular target: T2, GCN5 (Homo sapiens, UniProt Q92830); test: as above; format: biochemical; settings: 10-point dose curve from 100 μM
T2 construct: Creative Biomart (assay service)
Protocol: as §1

KAT5 = molecular target: T3, KAT5 (Homo sapiens, UniProt Q92993); test: as above; format: biochemical; settings: 10-point dose curve from 100 μM
T3 construct: Creative Biomart (assay service)
T3 sequence (Q92993 whole entry): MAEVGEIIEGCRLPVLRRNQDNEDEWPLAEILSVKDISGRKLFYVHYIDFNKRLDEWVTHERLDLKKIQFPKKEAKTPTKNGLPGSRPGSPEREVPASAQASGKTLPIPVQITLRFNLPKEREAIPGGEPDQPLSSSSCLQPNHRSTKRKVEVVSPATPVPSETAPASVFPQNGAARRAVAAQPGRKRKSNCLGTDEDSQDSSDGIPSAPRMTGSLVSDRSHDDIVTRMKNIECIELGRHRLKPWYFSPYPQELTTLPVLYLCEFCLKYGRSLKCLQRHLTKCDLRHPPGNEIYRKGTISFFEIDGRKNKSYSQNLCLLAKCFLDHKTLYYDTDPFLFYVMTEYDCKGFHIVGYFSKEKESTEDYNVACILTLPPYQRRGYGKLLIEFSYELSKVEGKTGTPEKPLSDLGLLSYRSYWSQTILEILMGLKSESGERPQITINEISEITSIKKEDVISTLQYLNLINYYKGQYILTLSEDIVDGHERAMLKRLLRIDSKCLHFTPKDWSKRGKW
Protocol: as §1

MYST2/KAT7 = molecular target: T4, MYST2/KAT7 (Homo sapiens, UniProt O95251); test: as above; format: biochemical; settings: 10-point dose curve from 100 μM
T4 construct: Creative Biomart (assay service)
T4 sequence (O95251 whole entry): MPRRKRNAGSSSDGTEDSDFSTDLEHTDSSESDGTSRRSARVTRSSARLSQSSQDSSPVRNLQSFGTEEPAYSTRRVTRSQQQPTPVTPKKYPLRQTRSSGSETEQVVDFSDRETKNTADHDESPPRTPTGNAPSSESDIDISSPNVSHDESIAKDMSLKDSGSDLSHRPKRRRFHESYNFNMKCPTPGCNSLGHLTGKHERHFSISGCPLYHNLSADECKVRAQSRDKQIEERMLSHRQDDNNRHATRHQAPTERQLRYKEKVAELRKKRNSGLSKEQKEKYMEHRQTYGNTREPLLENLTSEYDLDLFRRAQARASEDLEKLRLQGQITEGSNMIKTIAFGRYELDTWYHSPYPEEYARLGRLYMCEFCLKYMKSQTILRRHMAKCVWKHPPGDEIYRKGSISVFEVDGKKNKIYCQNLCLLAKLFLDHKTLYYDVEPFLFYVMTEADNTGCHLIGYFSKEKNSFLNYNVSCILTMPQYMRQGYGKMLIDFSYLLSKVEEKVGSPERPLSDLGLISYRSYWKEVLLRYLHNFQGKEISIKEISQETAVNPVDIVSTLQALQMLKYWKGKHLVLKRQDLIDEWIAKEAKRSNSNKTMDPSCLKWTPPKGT
Protocol: as §1

MYST4/KAT6b = molecular target: T5, MYST4/KAT6b (Homo sapiens, UniProt Q8WYB5); test: as above; format: biochemical; settings: 10-point dose curve from 100 μM
T5 construct: Creative Biomart (assay service)
T5 sequence (Q8WYB5 whole entry): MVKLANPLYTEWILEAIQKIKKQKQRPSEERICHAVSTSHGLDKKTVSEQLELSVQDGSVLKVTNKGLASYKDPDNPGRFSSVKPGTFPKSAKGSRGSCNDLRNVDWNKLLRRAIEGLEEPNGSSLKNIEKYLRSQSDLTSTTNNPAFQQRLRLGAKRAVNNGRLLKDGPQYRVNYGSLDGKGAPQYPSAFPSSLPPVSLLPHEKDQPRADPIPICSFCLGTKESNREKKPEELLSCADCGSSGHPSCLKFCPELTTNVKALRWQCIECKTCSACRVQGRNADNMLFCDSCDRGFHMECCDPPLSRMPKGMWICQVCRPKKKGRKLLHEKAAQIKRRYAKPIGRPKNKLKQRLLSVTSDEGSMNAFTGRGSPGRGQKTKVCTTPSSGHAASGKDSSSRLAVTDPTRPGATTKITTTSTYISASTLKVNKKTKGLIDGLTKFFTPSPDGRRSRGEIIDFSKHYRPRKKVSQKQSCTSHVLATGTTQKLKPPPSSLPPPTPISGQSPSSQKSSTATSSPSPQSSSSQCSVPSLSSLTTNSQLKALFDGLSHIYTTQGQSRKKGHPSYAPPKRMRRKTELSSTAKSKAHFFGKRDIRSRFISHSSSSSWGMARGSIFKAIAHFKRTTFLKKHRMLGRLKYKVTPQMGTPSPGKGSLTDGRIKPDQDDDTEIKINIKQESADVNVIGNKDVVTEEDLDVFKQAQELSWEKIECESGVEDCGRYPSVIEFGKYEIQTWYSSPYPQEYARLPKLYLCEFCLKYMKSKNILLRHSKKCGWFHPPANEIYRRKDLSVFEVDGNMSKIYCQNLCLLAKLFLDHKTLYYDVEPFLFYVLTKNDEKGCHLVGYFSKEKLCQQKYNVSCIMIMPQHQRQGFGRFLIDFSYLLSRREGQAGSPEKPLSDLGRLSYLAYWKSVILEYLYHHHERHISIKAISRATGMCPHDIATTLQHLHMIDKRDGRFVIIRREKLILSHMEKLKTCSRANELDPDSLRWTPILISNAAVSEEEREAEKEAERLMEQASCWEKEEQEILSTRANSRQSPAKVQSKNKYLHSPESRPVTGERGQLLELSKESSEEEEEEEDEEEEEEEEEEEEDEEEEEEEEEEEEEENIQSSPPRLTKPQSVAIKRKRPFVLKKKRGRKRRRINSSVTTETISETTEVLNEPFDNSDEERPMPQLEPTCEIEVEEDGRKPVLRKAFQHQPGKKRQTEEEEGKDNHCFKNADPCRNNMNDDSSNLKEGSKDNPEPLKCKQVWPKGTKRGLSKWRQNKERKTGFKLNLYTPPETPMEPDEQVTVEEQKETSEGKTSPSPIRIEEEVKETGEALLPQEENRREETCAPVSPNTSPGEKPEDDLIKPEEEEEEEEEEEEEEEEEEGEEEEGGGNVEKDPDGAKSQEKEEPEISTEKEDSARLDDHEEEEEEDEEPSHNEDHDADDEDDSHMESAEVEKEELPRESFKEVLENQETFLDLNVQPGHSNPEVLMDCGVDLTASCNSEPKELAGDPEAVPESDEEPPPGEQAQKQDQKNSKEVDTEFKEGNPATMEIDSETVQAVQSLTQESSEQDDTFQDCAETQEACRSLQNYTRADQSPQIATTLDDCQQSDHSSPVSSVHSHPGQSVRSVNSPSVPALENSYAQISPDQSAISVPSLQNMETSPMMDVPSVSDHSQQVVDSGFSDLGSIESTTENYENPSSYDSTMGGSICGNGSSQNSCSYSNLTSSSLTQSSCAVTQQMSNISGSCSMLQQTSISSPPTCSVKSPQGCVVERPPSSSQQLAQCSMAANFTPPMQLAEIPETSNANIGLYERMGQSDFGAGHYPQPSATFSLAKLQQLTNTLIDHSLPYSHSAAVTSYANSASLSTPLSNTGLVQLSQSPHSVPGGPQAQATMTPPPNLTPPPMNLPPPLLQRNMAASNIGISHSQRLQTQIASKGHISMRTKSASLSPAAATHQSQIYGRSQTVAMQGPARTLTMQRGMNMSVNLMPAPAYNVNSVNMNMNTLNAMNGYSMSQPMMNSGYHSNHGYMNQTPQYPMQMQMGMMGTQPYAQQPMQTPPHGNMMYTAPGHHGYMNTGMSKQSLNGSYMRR
Protocol: as §1

PCAF = molecular target: T6, PCAF (Homo sapiens, UniProt Q92831); test: as above; format: biochemical; settings: 10-point dose curve from 100 μM
T6 construct: Creative Biomart (assay service)
T6 sequence (Q92831 whole entry): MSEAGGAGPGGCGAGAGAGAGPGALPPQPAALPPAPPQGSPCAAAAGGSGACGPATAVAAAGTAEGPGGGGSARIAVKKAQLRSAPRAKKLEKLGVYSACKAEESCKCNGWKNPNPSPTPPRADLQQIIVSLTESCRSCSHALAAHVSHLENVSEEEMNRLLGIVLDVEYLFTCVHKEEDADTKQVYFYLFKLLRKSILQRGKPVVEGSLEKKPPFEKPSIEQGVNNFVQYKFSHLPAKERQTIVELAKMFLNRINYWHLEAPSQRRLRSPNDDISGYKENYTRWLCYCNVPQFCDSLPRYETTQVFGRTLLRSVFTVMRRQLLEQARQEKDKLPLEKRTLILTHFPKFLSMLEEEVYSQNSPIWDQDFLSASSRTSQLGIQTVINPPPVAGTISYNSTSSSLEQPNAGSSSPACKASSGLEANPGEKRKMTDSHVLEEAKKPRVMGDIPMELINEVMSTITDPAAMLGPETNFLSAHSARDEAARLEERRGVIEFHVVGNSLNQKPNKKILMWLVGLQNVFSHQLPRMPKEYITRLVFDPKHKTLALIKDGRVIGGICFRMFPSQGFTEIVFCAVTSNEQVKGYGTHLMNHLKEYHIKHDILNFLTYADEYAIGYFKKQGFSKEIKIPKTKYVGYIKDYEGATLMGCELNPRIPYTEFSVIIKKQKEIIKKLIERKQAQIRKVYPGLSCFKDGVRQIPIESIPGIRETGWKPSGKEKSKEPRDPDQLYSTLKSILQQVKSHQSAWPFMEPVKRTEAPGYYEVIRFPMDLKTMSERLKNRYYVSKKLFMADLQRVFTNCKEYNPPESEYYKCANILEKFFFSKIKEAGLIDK
Protocol: as §1

p300 = molecular target: T7, p300 (Homo sapiens, UniProt Q09472); test: as above; format: biochemical; settings: 10-point dose curve from 100 μM
T7 construct: Creative Biomart (assay service)
Protocol: as §1

HCC1806 cell line = test: Cell growth inhibition (CellTiter-Blue / resazurin); format: cell-based, human
Protocol: (§2) hTert-HME1, HCC1806, HCC1937, A549 were maintained in a humified incubator at 37deg C. with 5% CO2. HCC1806 and HCC1937 were grown in RPMI with 10% FBS and 1% penicillin-streptomycin. A549 was grown in F-12 media with 10% FBS and 1% penicillin-streptomycin. hTert-HME1 was grown in Mammary Epithelial Growth Media (PromoCell). Drug treatments were performed in 96-well plates. Cells were seeded at 5000 cells per well, then allowed to attach overnight. Drug dilutions were made in 96-well plates then transferred to plate containing cells and incubated for 48-72 hours. Cell density was then determined by CellTiter-Blue (Promega). For capillary immunoassays hTert-HME1 5E5 cells were seeded in 10 cm plates and cultured for 48 hours, then cells were washed 2× in PBS and EGF-free MEGM was added overnight. The next day, cells were treated in EGF-free media with 1% dialyzed BSA+drug for 30 minutes, then EGF was added to the plate and cells were cultured for 8, 10 and 12 hours before harvesting. Microcapillary immunoassays were performed on a SimpleWestern Wes instrument using H4K12-Ac antibody (Abcam ab46983) at 1:25 dilution, H4K5-Ac antibody (Millipore 07-327) at 1:50 dilution, HAT1 (Abcam ab194296) at 1:50 dilution, nascent H4 (Abcam ab7311) at 1:10 dilution, nascent H3 (Abcam ab18521) at 1:50 dilution, actin (Thermo-Fisher MA5-15452) at 1:100 dilution.

A549 cell line = test: as above; format: cell-based; settings: Homo sapiens
Protocol: as §2

HCC1937 cell line = test: as above; format: cell-based; settings: Homo sapiens
Protocol: as §2

[2] = tested on: H4 lysine 5 and 12 acetylation; test: Capillary immunoassay of H4 acetylation in hTert-HME1 cells; format: cell-based, human
Protocol: At some timepoints, decreased H4 protein levels were also observed, consistent with prior studies of the effects of HAT1 depletion (J. J. Gruber, et al., Mol Cell 75:711-724 e5, 2019, cited supra).
as §2, with “Microcapillary immunoassays were performed on a SimpleWestern Wes instrument using H4K12-Ac antibody (Abcam ab46983) at 1:25 dilution, H4K5-Ac antibody (Millipore 07-327) at 1:50 dilution, HAT1 (Abcam ab194296) at 1:50 dilution, nascent H4 (Abcam ab7311) at 1:10 dilution, nascent H3 (Abcam ab18521) at 1:50 dilution, actin (Thermo-Fisher MA5-15452) at 1:100 dilution.” left out

[3] = Fluorescence imaging of harvested organs (compound distribution); format: in vivo, mice; settings: 24 hours
Text: Organs were harvested and excited with UV light (230 nm) and imaged with a yellow-green filter.

[4] = mouse, in vivo, ip
A549 tumors = test: A549 tumor growth in NSG mice
Protocol: P-value calculated by least squares regression and extra sum-of-squares F-test. N=5 mice per group.
A549 cells were infected with 3 lentiviral shRNAs targeting the human HAT1 mRNA (Origene #TL312517). Six-to-eight-week-old NSG female mice (Jackson Labs #005557) were shaved, then 500,000 A549 tumor cells were injected into bilateral flanks and tumor growth was assessed by tri-dimensional tumor measurements to yield tumor volumes. For drug treatments, analog 2016 was resuspended in a 1:1 mixture of PEG-400 and PBS+1% dialyzed BSA-0.2 μm-filtered (MilliporeSigma #12-660-910GM). Intraperitoneal injections (200 μL) were performed with a 21-G needle. Tumor measurements were performed with digital calipers.

[5] = molecular target: T8, bacterially-expressed recombinant HAT1 (Homo sapiens, UniProt O14929); settings: Ngo, Brown, Zheng 2019; read-out: Ki towards recombinant HAT1; cited from earlier work
T8 sequence (O14929 1-419): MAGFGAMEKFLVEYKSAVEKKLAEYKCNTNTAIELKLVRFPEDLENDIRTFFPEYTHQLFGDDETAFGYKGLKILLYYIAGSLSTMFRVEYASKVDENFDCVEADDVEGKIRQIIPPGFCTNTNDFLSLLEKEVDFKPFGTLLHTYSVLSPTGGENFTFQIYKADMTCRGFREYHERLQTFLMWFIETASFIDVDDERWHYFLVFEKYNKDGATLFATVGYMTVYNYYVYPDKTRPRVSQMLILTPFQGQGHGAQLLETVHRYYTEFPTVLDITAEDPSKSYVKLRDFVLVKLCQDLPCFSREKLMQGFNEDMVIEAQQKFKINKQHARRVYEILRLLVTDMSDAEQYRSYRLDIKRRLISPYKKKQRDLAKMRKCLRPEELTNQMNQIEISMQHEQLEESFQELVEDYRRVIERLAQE

Molecule: O=c1nc2n(C[C@H](O)[C@H](O)[C@H](O)CO)c3cc(Cl)c(Cl)cc3nc-2c(=O)[nH]1 [NSC-42186]
- IC50 [1]: 60.5 µM and 38 µM
- % inhibition of HAT1 activity ([1]; single dose 100 μM): 31%

Molecule: CCc1cc2c(cc1Cl)nc1c(=O)[nH]c(=O)nc-1n2CCOCc1ccc(C#N)cc1 [JG-2092]
- HAT1 inhibitory activity in library screens (rank, active or inactive) [1]: interfered with enzyme inhibition

Molecule: CC(C)(COP(=O)(O)OP(=O)(O)OC[C@H]1O[C@@H](n2cnc3c(N)ncnc32)[C@H](O)[C@@H]1OP(=O)(O)O)[C@@H](O)C(=O)NCCC(=O)NCCSC(=O)[C@@H](N)CCCCN [lysyl-CoA]
- inhibition of HAT1/Rbap46 by bi-substrate inhibitors [1]: no inhibitory activity

Molecule: COC1=C(N)C(=O)c2nc(-c3nc(C(=O)O)c(C)c(-c4ccc(OC)c(OC)c4O)c3N)ccc2C1=O [NSC-83950]
- HAT1 inhibitory activity in library screens (rank, active or inactive) [1]: inhibitory activity

Molecule: Cc1cc2nc3[nH]c(=O)[nH]c(=O)c3nc2cc1C [di-methyl-alloxazine]
- HAT1 inhibitory activity of flavonoids in dose-response [1]: no detectable inhibitory activity

Molecule: Cc1cc2cc3c(=O)[nH]c(=O)cc-3n(CC(O)C(O)C(O)CO)c2cc1C (stereo not drawn) [NSC-275266]
- HAT1 inhibitory activity in library screens (rank, active or inactive) [1]: fifth best hit

Molecule: NC(=S)c1cn(C2OC(CO)C(O)C2O)c2ncnc(N)c12 (stereo not drawn) [NSC-105827]
- HAT1 inhibitory activity in library screens (rank, active or inactive) [1]: inhibitory activity

Molecule: CCc1cc2c(cc1Cl)nc1c(=O)[nH]c(=O)nc-1n2CCOCC(C)C [JG-2016, 7-chloro-8-ethyl-10-(2-isobutoxyethyl)benzo[g]pteridine-2,4(3H, 10H)-dione]
- IC50 (CBP): 90.4 µM
- inhibitory activity towards GCN5 (GCN5): minimal or undetectable inhibitory activity
- inhibitory activity towards KAT5 (KAT5): minimal or undetectable inhibitory activity
- IC50 (MYST2/KAT7): 84.8 µM
- inhibitory activity towards MYST4/KAT6b (MYST4/KAT6b): minimal or undetectable inhibitory activity
- inhibitory activity towards PCAF (PCAF): minimal or undetectable inhibitory activity
- IC50 (p300): 74.2 µM
- cell growth inhibition (HCC1806 cell line): among the most potent inhibitors of cell growth
- EC50 (HCC1806 cell line; Homo sapiens): 10.4 µM
- EC50 (A549 cell line): 1.9 µM
- IC50 (A549 cell line; read-out: IC50 required to impair cell proliferation): 1.9 µM
- EC50 (HCC1937 cell line): 29.8 µM
- time course of H4 acetylation inhibition ([2]; hTert-HME1, EGF stimulation 8, 10, 12 hours): on-target inhibition as early as 8 hours post-treatment that persisted through 12 hours
- inhibition of H4 lysine 5 and 12 acetylation ([2]; hTert-HME1, dose series): dose-dependent inhibition
- tissue accumulation by fluorescence imaging ([3]; healthy mice, 500 mg/kg i.p.): high accumulation adipose tissue
- tissue accumulation by fluorescence imaging ([3]; mice bearing bilateral A549 tumors, 100 mg/kg once): compound accumulation in subcutaneous adipose tissues (SAT), visceral adipose tissue (VAT), and tumors
- tolerated single intraperitoneal dose with minimal toxicity [4]: up to 250 mg/kg
- toxicity signs ([4]; 500 mg/kg): signs of distress
- tumor growth versus vehicle (A549 tumors; 50 mg/kg and 100 mg/kg i.p. once every three days from day 13): significantly impaired tumor growth
- dose-response of tumor growth suppression (A549 tumors; higher dose (100 mg/kg) compared to lower dose (50 mg/kg)): more profound suppression of tumor growth

Molecule: O=C(O)Cc1ccc(N=Nc2c(O)c(C(=O)O)cc3ccccc23)cc1 [NSC-156563]
- HAT1 inhibitory activity in library screens (rank, active or inactive) [1]: inhibitory activity

Molecule: Cc1cc2nc3c(=O)[nH]c(=O)nc-3n(C[C@H](O)[C@H](O)[C@H](O)COP(=O)(O)OP(=O)(O)OC[C@H]3O[C@@H](n4cnc5c(N)ncnc54)[C@H](O)[C@@H]3O)c2cc1C [FAD, flavin-adenine-dinucleotide]
- HAT1 inhibitory activity of flavonoids in dose-response [1]: no detectable inhibitory activity

Molecule: CCc1cc2c(cc1Cl)nc1c(=O)[nH]c(=O)nc-1n2CCCOc1cccc(C#N)c1 [JG-2088]
- HAT1 inhibitory activity in library screens (rank, active or inactive) [1]: interfered with enzyme inhibition

Molecule: CC(=O)OCCn1c2nc(=O)[nH]c(=O)c-2nc2cc(C)c(C)cc21 [NSC-3064]
- HAT1 inhibitory activity in library screens (rank, active or inactive) [1]: top hit

Molecule: Cc1cc2nc3c(=O)[nH]c(=O)nc-3n(C[C@H](O)[C@H](O)[C@H](O)CO)c2cc1N(C)C [roseoflavin, reference compound]
- HAT1 inhibitory activity in library screens (rank, active or inactive) [1]: inactive
- cell growth inhibition (HCC1806 cell line): strong cell growth inhibitory properties

Molecule: Cc1cc2nc3c(=O)[nH]c(=O)nc-3n(C[C@H](O)[C@H](O)[C@H](O)COP(=O)(O)O)c2cc1C [FMN, flavin-mononucleotide]
- HAT1 inhibitory activity of flavonoids in dose-response [1]: no detectable inhibitory activity

Molecule: CCCC(=O)OC[C@@H](OC(=O)CCC)[C@@H](OC(=O)CCC)[C@H](Cn1c2nc(=O)[nH]c(=O)c-2nc2cc(C)c(C)cc21)OC(=O)CCC [riboflavin tetrabutyrate]
- IC50 [1]: 17 µM

Molecule: Oc1ccccc1-c1nc2c3ccccc3c3ccccc3c2[nH]1 [NSC-332670]
- HAT1 inhibitory activity in library screens (rank, active or inactive) [1]: inhibitory activity

Molecule: H4K12-CoA: co-enzyme A chemically ligated to the ζ-amine of lysine 12 in the histone H4 N-terminal 20-mer peptide
- inhibition of HAT1/Rbap46 by bi-substrate inhibitors [1]: robust inhibition
- IC50 [1]: ~1 µM
- cell growth inhibition (HCC1806 cell line): no inhibitory activity
- Ki [5]: ~0.001 µM

Molecule: CCc1cc2c(cc1Cl)nc1c(=O)[nH]c(=O)nc-1n2CCOCc1cccc(F)c1 [JG-2069]
- HAT1 inhibitory activity in library screens (rank, active or inactive) [1]: interfered with enzyme inhibition
